In patent US20250127825A1, “PROBIOTIC COMPOSITIONS AND METHODS OF USE THEREOF FOR WEIGHT LOSS” (priority 2023, published 2025):

Tested on: C. elegans worms
Assay: Nile Red lipid staining of worm intestine after 48 hours on experimental diet, non-obesogenic setting
Type: in vivo
Settings: for Normalized Nile Red fluorescence, Mean / Normalized Nile Red fluorescence, Median: divided by mean fluorescence of standard diet; for reduced fat levels compared to the Orlistat control / reduced fat levels compared to the standard E. coli OP50 control diet: reduction; for Mean Diff. of fluorescence, Orlistat vs. UF1 100 mg/ml / Mean Diff. of fluorescence, Orlistat vs. UF1 OD7 / Mean Diff. of fluorescence, Standard E. coli Diet vs. UF1 100 mg/ml / Mean Diff. of fluorescence, Standard E. coli Diet vs. UF1 OD7 / Mean Diff. of fluorescence, Standard E. coli Diet vs. Orlistat: Holm-Šidák's multiple comparisons test; for Nile Red fluorescence intensity, Mean / Nile Red fluorescence intensity, Median: 48 hours, non-obesogenic
Description: In this example the weight loss potential of the UF1 probiotic strain was studied. The UF1 probiotic strain was tested in a non-obesogenic setting by measuring the amount of internal fat in UF1-treated worms compared to no treatment controls. Orlistat treatment was also included as a positive control for fat reduction.
Methodology—Worms were raised to the L4 larval stage using standard plate culture methods. The L4 larvae were then loaded into a microfluidic chip and fed a diet of live E. coli OP50 (20 mg/ml) in liquid nematode growth media (NGM). After 24 hours on the chip, the media for each experimental cohort was switched to the experimental diet. The animals were maintained on each experimental diet for 48 hours before being fixed and stained with Nile Red—a fluorescent dye that binds lipids. A fluorescent microscopy system was then used to image the brightness of the lipid staining in the intestine of the worms, which correlates to the levels of fat in each animal.
Nile Red gives off fluorescence when illuminated with green light. The brightness of the intestinal saining in each worm per trial was quantified. This allows the measurement of the natural variability in fat levels across individuals. ANOVA was then used to determine if the distributions across treatment conditions were statistically different to one another.
All datasets were combined by normalizing the data in each trial by dividing it by the mean fluorescence value of the standard diet. In the combined data, the UF1 diets reduced fat levels compared to the standard E. coli OP50 control diet by approximately 47% and 46%, respectively. The subjects also had reduced fat levels compared to the Orlistat control by approximately 38% and 37%, respectively.

[1] = All trials combined, UF1 100 mg/ml diet
[2] = All trials combined, UF1 OD7 diet
[3] = All trials combined, normalized, UF1 100 mg/ml diet
[4] = All trials combined, normalized, UF1 OD7 diet
[5] = All trials combined, Holm-Šídák's multiple comparisons test
[6] = Combined data, UF1 100 mg/ml diet
[7] = Trial 1, UF1 100 mg/ml diet, mean fluorescence
[8] = Trial 1, UF1 OD7 diet, mean fluorescence
[9] = Trial 2, UF1 100 mg/ml diet, mean fluorescence
[10] = Trial 2, UF1 OD7 diet, mean fluorescence
[11] = Trial 3, UF1 100 mg/ml diet, mean fluorescence
[12] = All trials combined, Orlistat 6 μg/ml
[13] = Trial 1, live OP50 20 mg/ml + Orlistat 6 μg/ml
[14] = Trial 2, live OP50 20 mg/ml + Orlistat 6 μg/ml
[15] = Trial 3, live OP50 20 mg/ml + Orlistat 6 μg/ml

Compound: Propionibacterium freudenreichii UF1
- Normalized Nile Red fluorescence, Mean [1]: 0.5321
- Normalized Nile Red fluorescence, Median [1]: 0.5247
- Normalized Nile Red fluorescence, Mean [2]: 0.5417
- Normalized Nile Red fluorescence, Median [2]: 0.5207
- Percentage Change from Orlistat [3]: −37.98%
- Percentage Change from Standard Diet [3]: −46.79%
- Percentage Change from Orlistat [4]: −36.86%
- Percentage Change from Standard Diet [4]: −45.83%
- Mean Diff. of normalized fluorescence, Orlistat vs. UF1 100 mg/ml [5]: 0.3259
- Mean Diff. of normalized fluorescence, Orlistat vs. UF1 OD7 [5]: 0.3162
- Mean Diff. of normalized fluorescence, Standard E. coli Diet vs. UF1 100 mg/ml [5]: 0.4679
- Mean Diff. of normalized fluorescence, Standard E. coli Diet vs. UF1 OD7 [5]: 0.4583
- reduced fat levels compared to the Orlistat control [6]: approximately 38%
- reduced fat levels compared to the standard E. coli OP50 control diet [6]: approximately 47%
- reduced fat levels compared to the Orlistat control (Combined data, UF1 OD7 diet): ~37%
- reduced fat levels compared to the standard E. coli OP50 control diet (Combined data, UF1 OD7 diet): ~46%
- Mean Diff. of fluorescence, Orlistat vs. UF1 100 mg/ml (Trial 1): 5160787
- Mean Diff. of fluorescence, Orlistat vs. UF1 OD7 (Trial 1): 5293675
- Mean Diff. of fluorescence, Standard E. coli Diet vs. UF1 100 mg/ml (Trial 1): 5788977
- Mean Diff. of fluorescence, Standard E. coli Diet vs. UF1 OD7 (Trial 1): 5921865
- less fat than the Orlistat control (Trial 1, UF1 100 mg/ml diet): approximately 50%
- Nile Red fluorescence intensity, Mean (Trial 1, UF1 100 mg/ml diet): 5194112
- Nile Red fluorescence intensity, Median (Trial 1, UF1 100 mg/ml diet): 5124444
- Percentage Change from Orlistat [7]: −49.84%
- Percentage Change from Standard Diet [7]: −52.71%
- reduced fat levels compared to the standard E. coli OP50 control diet (Trial 1, UF1 100 mg/ml diet): approximately 53%
- less fat than the Orlistat control (Trial 1, UF1 OD7 diet): ~51%
- Nile Red fluorescence intensity, Mean (Trial 1, UF1 OD7 diet): 5061224
- Nile Red fluorescence intensity, Median (Trial 1, UF1 OD7 diet): 5147920
- Percentage Change from Orlistat [8]: −51.12%
- Percentage Change from Standard Diet [8]: −53.92%
- reduced fat levels compared to the standard E. coli OP50 control diet (Trial 1, UF1 OD7 diet): ~54%
- Mean Diff. of fluorescence, Orlistat vs. UF1 100 mg/ml (Trial 2): 1399524
- Mean Diff. of fluorescence, Orlistat vs. UF1 OD7 (Trial 2): 2435073
- Mean Diff. of fluorescence, Standard E. coli Diet vs. UF1 100 mg/ml (Trial 2): 3021408
- Mean Diff. of fluorescence, Standard E. coli Diet vs. UF1 OD7 (Trial 2): 4056957
- less fat than the Orlistat control (Trial 2, UF1 100 mg/ml diet): approximately 16%
- Nile Red fluorescence intensity, Mean (Trial 2, UF1 100 mg/ml diet): 7612410
- Nile Red fluorescence intensity, Median (Trial 2, UF1 100 mg/ml diet): 7441676
- Percentage Change from Orlistat [9]: −15.53%
- Percentage Change from Standard Diet [9]: −28.41%
- reduced fat levels compared to the standard E. coli OP50 control diet (Trial 2, UF1 100 mg/ml diet): approximately 28%
- less fat than the Orlistat control (Trial 2, UF1 OD7 diet): ~27%
- Nile Red fluorescence intensity, Mean (Trial 2, UF1 OD7 diet): 6576861
- Nile Red fluorescence intensity, Median (Trial 2, UF1 OD7 diet): 6691779
- Percentage Change from Orlistat [10]: −27.02%
- Percentage Change from Standard Diet [10]: −38.15%
- reduced fat levels compared to the standard E. coli OP50 control diet (Trial 2, UF1 OD7 diet): ~38%
- Mean Diff. of fluorescence, Orlistat vs. UF1 100 mg/ml (Trial 3): 9045435
- Mean Diff. of fluorescence, Standard E. coli Diet vs. UF1 100 mg/ml (Trial 3): 18834504
- less fat than the Orlistat control (Trial 3, UF1 100 mg/ml diet): approximately 32%
- Nile Red fluorescence intensity, Mean (Trial 3, UF1 100 mg/ml diet): 19167276
- Nile Red fluorescence intensity, Median (Trial 3, UF1 100 mg/ml diet): 20425415
- Percentage Change from Orlistat [11]: −32.06%
- Percentage Change from Standard Diet [11]: −49.56%
- reduced fat levels compared to the standard E. coli OP50 control diet (Trial 3, UF1 diets (UF1 100 mg/ml)): approximately 50%
- reduction in fat level compared with Orlistat (UF1 diets, conclusion in words): stronger reduction in fat level than the anti-obesity drug Orlistat
- levels of fat in the intestines of C. elegans worms (non-obesogenic conditions, conclusion in words): reduced the levels of fat

Compound: CCCCCCCCCCC[C@@H](C[C@@H]1OC(=O)[C@H]1CCCCCC)OC(=O)[C@H](CC(C)C)NC=O [Orlistat, reference compound]
- Normalized Nile Red fluorescence, Mean [12]: 0.8579
- Normalized Nile Red fluorescence, Median [12]: 0.8801
- Percentage Change from Standard Diet (All trials combined, normalized, Orlistat 6 μg/ml): −14.21%
- Mean Diff. of normalized fluorescence, Standard E. coli Diet vs. Orlistat (All trials combined, Holm-Šídák's multiple comparisons test, Orlistat 6 μg/ml): 0.1421
- Mean Diff. of fluorescence, Standard E. coli Diet vs. Orlistat (Trial 1, Orlistat 6 μg/ml): 628190
- Nile Red fluorescence intensity, Mean [13]: 10354899
- Nile Red fluorescence intensity, Median [13]: 10198510
- Percentage Change from Standard Diet (Trial 1, live OP50 20 mg/ml + Orlistat 6 μg/ml, mean fluorescence): −5.72%
- Mean Diff. of fluorescence, Standard E. coli Diet vs. Orlistat (Trial 2, Orlistat 6 μg/ml): 1621884
- Nile Red fluorescence intensity, Mean [14]: 9011934
- Nile Red fluorescence intensity, Median [14]: 8938493
- Percentage Change from Standard Diet (Trial 2, live OP50 20 mg/ml + Orlistat 6 μg/ml, mean fluorescence): −15.25%
- Mean Diff. of fluorescence, Standard E. coli Diet vs. Orlistat (Trial 3, Orlistat 6 μg/ml): 9789069
- Nile Red fluorescence intensity, Mean [15]: 28212711
- Nile Red fluorescence intensity, Median [15]: 23127648
- Percentage Change from Standard Diet (Trial 3, live OP50 20 mg/ml + Orlistat 6 μg/ml, mean fluorescence): −25.76%
